Data: patent US10844092B2, “Peptide for promoting regeneration of dentin or dental pulp tissue” (HysensBio Co., Ltd., priority 2016, dated 2020)

These substances were tested on Dspp gene (assay: mRNA level of Dspp gene in MDPC-23 cells by real-time PCR). Settings: 48 hours, ratio relative to Dspp mRNA level of control group, triplicate.
Type: cell-based, mouse
Procedure: The MDPC-23 cells cultured in Example 2-1 were treated with the peptides of the respective groups which were synthesized in Example 1, and cultured for 48 hours. Then, mRNA levels of an odontoblast differentiation marker Dspp gene expressed in the MDPC-23 cells were measured, and a ratio of the measured Dspp mRNA level relative to a Dspp mRNA level measured in a control group was calculated, respectively (Tables 13 to 24). Further, mean values of the Dspp mRNA levels measured in the peptides of respective groups were compared between the groups (FIG. 1B). In this regard MDPC-23 cells which were treated with none of the peptides of the present invention were used as a control group.
The expression levels of the Dspp gene were measured by RT-PCR and real time PCR analysis: In detail, total RNA was extracted from the MDPC-23 cells with TRIzol reagent. 2 μg of the total RNA, 1 μl of reverse transcriptase, and 0.5 μg oligo (dT) were used to synthesize cDNA. The synthesized cDNA were used in real-time polymerase chain reaction. The real-time polymerase chain reaction was performed on an ABI PRISM 7500 sequence detection system (Applied Biosystems) using the following primers and a SYBR GREEN PCR Master Mix (Takara, Japan). The real-time polymerase chain reaction was performed under conditions of 94° C., 1 min; 95° C., 15 sec 60° C., 34 sec for 40 cycles. Results were analyzed by a comparative cycle threshold (CT) method. In this regard, Gapdh gene was used as an internal control. The experiments were performed in triplicate, and then mean values and standard deviations thereof were taken as measured values.

Row | Substance | mRNA level of Dspp gene, Mean
1 | 80 (KYKQKRRSKY; Synthetic construct of novel peptide) [compound 80] | 1.837
2 | 90 (KYKQRKRSYK; Synthetic construct of novel peptide) [compound 90] | 4.811
3 | 4 (KYQRRRRNKY; Synthetic construct of novel peptide) [compound 4] | 1.855
4 | 13 (KYQRKKKSKY; Synthetic construct of novel peptide) [compound 13] | 1.685
5 | 2 (KYQRRKRNKY; Synthetic construct of novel peptide) [compound 2] | 1.646
6 | 81 (KYKQRKKNYK; Synthetic construct of novel peptide) [compound 81] | 3.092
7 | 78 (KYKQKRKSKY; Synthetic construct of novel peptide) [compound 78] | 2.635
8 | 15 (KYQRKKRSKY; Synthetic construct of novel peptide) [compound 15] | 1.964
9 | 71 (KYKQKKRNKY; Synthetic construct of novel peptide) [compound 71] | 1.879
10 | 14 (KYQRKRKSKY; Synthetic construct of novel peptide) [compound 14] | 1.846
11 | 37 (KYRQKKKNKY; Synthetic construct of novel peptide) [compound 37] | 1.597
12 | 5 (KYQRKKKNKY; Synthetic construct of novel peptide) [compound 5] | 1.639
13 | 61 (KYRQKKKSYK; Synthetic construct of novel peptide) [compound 61] | 2.301
14 | 45 (KYRQKKKSKY; Synthetic construct of novel peptide) [compound 45] | 1.532
15 | 38 (KYRQKRKNKY; Synthetic construct of novel peptide) [compound 38] | 2.116
16 | 49 (KYRQRKKNYK; Synthetic construct of novel peptide) [compound 49] | 1.923
17 | 35 (KYRQRRKNKY; Synthetic construct of novel peptide) [compound 35] | 1.983
18 | 42 (KYRQRKRSKY; Synthetic construct of novel peptide) [compound 42] | 1.586
19 | 1 (KYQRRKKNKY; Synthetic construct of novel peptide) [compound 1] | 1.754
20 | 62 (KYRQKRKSYK; Synthetic construct of novel peptide) [compound 62] | 1.672
21 | 67 (KYKQRRKNKY; Synthetic construct of novel peptide) [compound 67] | 1.777
22 | 89 (KYKQRKKSYK; Synthetic construct of novel peptide) [compound 89] | 4.211
23 | 87 (KYKQKKRNYK; Synthetic construct of novel peptide) [compound 87] | 3.888
24 | 76 (KYKQRRRSKY; Synthetic construct of novel peptide) [compound 76] | 2.351
25 | 69 (KYKQKKKNKY; Synthetic construct of novel peptide) [compound 69] | 2.011
26 | 24 (KYQRKRRNYK; Synthetic construct of novel peptide) [compound 24] | 2.212
27 | 3 (KYQRRRKNKY; Synthetic construct of novel peptide) [compound 3] | 1.464
28 | 32 (KYQRKRRSYK; Synthetic construct of novel peptide) [compound 32] | 2.219
29 | 39 (KYRQKKRNKY; Synthetic construct of novel peptide) [compound 39] | 1.712
